Active and inactive are the calls of the source.
Legend:
Major prion protein = Major prion protein (Homo sapiens, UniProt P04156); type: functional, cell-based
cells [1] = assay: cells
[2] = HEp-2 cell cytotoxicity, dose response, cytotoxicity control for RSV inhibitor project, HTS (AID 2410); type: functional; details: human respiratory syncytial virus
cells [3] = assay: cells; remark: listed apart in the source
[4] = NIH:OVCAR-3 ovarian cancer cell cytotoxicity, dose response, PAX8 inhibitor project, plate reader, dry powder samples (AID 743044); type: functional, cell-based
Paired box protein Pax-8 = Paired box protein Pax-8 (Homo sapiens, UniProt Q06710); assay: inhibitors of PAX8-driven TPO luciferase reporter, dose response, RMG-I cells, cherry-pick (AID 687027); type: functional, cell-based;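 note: luciferase reporter driven by Pax8 target thyroperoxidase promoter measured by SteadyGlo luminescence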
[5] = target: T1, Oxysterols receptor LXR-beta (Homo sapiens, UniProt P55055); type: functional, cell-based
T1 sequence (P55055 whole entry): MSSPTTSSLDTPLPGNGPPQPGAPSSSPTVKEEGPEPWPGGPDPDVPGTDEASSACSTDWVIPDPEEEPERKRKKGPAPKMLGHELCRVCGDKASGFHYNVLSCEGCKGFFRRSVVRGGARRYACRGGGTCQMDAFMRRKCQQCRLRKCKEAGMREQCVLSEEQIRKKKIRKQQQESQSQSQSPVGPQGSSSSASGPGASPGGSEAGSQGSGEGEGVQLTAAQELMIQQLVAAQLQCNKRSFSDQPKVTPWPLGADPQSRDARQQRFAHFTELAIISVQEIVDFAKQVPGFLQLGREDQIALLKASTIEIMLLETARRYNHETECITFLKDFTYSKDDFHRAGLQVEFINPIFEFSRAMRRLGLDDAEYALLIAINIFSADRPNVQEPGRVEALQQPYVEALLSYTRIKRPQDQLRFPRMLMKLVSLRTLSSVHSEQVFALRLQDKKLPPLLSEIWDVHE

[6] = target: T1, Oxysterols receptor LXR-beta; type: functional, cell-based; remark: listed apart in the source
INS1 = assay: beta cell apoptosis inhibitors, cytokine rescue, dose response, luminescence, retest (AID 449756); type: functional, cell-based; details: Rattus norvegicus;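 note: cell death triggered by IL-1 beta plus TNF-alpha plus IFN-gamma mixture; protective hits raise ATP signal compared with cytokine alone wells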
HT-1080 = assay: cytotoxicity in HT1080 fibrosarcoma cells, cell-based, fluorescence readout (AID 620); type: functional; details: Homo sapiens
cells [7] = assay: cells; remark: listed apart in the source
[8] = target: Luciferin 4-monooxygenase (Photinus pyralis, UniProt P08659); assay: Counter Screen for Luciferase-based Assay Positives. [Related pubchem assays: 620, 618, 411 ]
[9] = Luminescence-based cell-based high throughput dose response assay to identify activators of the DAF-12 from the parasite S. stercoralis (ssDAF-12).; type: functional
[10] = target: T1, Oxysterols receptor LXR-beta; assay: LXR agonists, Gal4 luciferase reporter, dose response, counter-screen for ssDAF-12 agonist project, cell-based, luminescence, HEK293, S. stercoralis campaign (AID 720737); type: functional; details: read-out: IC50 (the source's name)
Prothrombin = Prothrombin (Homo sapiens, UniProt P00734); assay: Thrombin 1536 HTS Dose Response Confirmation. [Related pubchem assays: 1046 (Thrombin 1536 HTS; hits were confirmed in this assay)]; type: functional
[11] = IGROV1 ovarian cancer cell cytotoxicity, dose response, PAX8 inhibitor project, plate reader, dry powder samples (AID 743043); type: functional, cell-based; details: IGROV-1
[12] = cytotoxicity in OVCAR8 ovarian cancer cells, dose response, PAX8 project, cell-based, plate reader, dry powder samples (AID 743197); type: functional; details: OVCAR-8
Cytochrome P450 3A4 = Cytochrome P450 3A4 (Homo sapiens, UniProt P08684);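 note: CYP3A4 tested as one member of a cytochrome P450 panel screen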
[13] = cytotoxicity toward NIH3T3 fibroblasts, dose response, counter-screen, cell-based, ATP luminescence, mouse fibroblasts (AID 2010); type: functional;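 note: cells exposed to compound for about 90 hours before reading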
[14] = inhibitors of intracellular T. cruzi replication, confirmation, NIH3T3 host cells, beta-gal luminescence (AID 2044); type: functional, cell-based;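 note: intracellular parasites grown in NIH/3T3 mouse fibroblasts as host cells; luminescent beta-galactosidase reporter signal from transgenic T. cruzi replicating inside host cells; inhibitors lower the luminescence signal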

O=C(O)c1cc(-c2cccs2)nc2ccc(Br)cc12
IC50 (Major prion protein): 1.41 µM (active) | IC50 (cells [1]): > 138 µM (inactive)

Cc1ccc(C(=O)N/C(=C/c2ccc(C(C)C)cc2)C(=O)NCCCN2CCOCC2)cc1
CC50 [2]: > 50 µM (active) | IC50 (cells [3]): 13.2 µM (active)

COc1ccccc1S(=O)(=O)N1CC[C@H]2[C@@H](CO)N(C)c3ccc(-c4ccc(C#N)cc4)cc3[C@H]21
AC50 [4]: 37.8 µM (active) | AC50 (Paired box protein Pax-8): 38.1 µM (active)

Cc1ccc(C(=N)NOC(=O)c2cccs2)cc1
EC50 [5]: > 67.6 µM (inactive)

Cc1cc(N2CCOCC2)n2ncc(-c3ccccc3)c2n1
EC50 [6]: > 67.5 µM (inactive) | AC50 (INS1): 7.88 µM (active) | EC50 (HT-1080): > 50 µM (not active) | EC50 (cells [7]): > 67.5 µM (inactive) | EC50 [8]: 0.2 µM (active)

Cn1cc(Cl)c(C(=O)Nc2nc3ccccc3s2)n1
EC50 [6]: > 67.5 µM (inactive) | IC50 [9]: > 67.5 µM (inactive) | EC50 (cells [7]): > 67.5 µM (inactive) | EC50 [10]: > 67.5 µM (inactive)

CC1CCc2c(sc(NC(=O)COC(=O)C3CCCO3)c2C#N)C1 (stereo not given)
IC50 (Prothrombin): > 50 µM (not active)

COc1ccc(S(=O)(=O)Nc2ccc3c(c2)C(=O)N([C@@H](C)CO)C[C@H](C)[C@@H](CN(C)Cc2ccc(C(F)(F)F)cc2)OCCCC[C@H](C)O3)cc1
AC50 [4]: 46.7 µM (active) | AC50 [11]: 37.9 µM (active) | AC50 (Paired box protein Pax-8): 6.83 µM (active) | AC50 [12]: > 70 µM (inactive)

CCOC(=O)CSc1nnc(NC(=O)c2ccccc2)[nH]1
AC50 (Cytochrome P450 3A4): 39.8 µM (inconclusive) | IC50 (Prothrombin): 0.862 µM (active)

C[C@@H]1CN([C@H](C)CO)C(=O)c2cc(NS(=O)(=O)c3ccccc3)ccc2O[C@@H](C)CCCCO[C@@H]1CN(C)Cc1ccc(Cl)c(Cl)c1
AC50 [11]: 27.8 µM (active) | AC50 (Paired box protein Pax-8): 4.44 µM (active) | AC50 [12]: 46.5 µM (active)

Cc1ccc(C)c(Nc2c([N+](=O)[O-])cc(C(=O)N3CC(=O)Nc4ccccc43)cc2[N+](=O)[O-])c1
EC50 [13]: > 60 µM (inconclusive) | CC50 [2]: 28.3 µM (active) | IC50 (cells [3]): 41.7 µM (active) | EC50 [14]: 0.992 µM (active)

From ChEMBL document CHEMBL1201862, “PubChem BioAssay data set” (2004)
